Article PMC6797808, “Fucosylated inhibitors of recently identified bangle lectin from Photorhabdus asymbiotica” (Scientific Reports, 2019)
In brackets after ≈: the same amount, converted by molar mass. Like-named read-outs stand apart in the source and are kept apart here.

What was measured:
[1] = target: T1, PHL (Photorhabdus asymbiotica, UniProt C7BLE4); assay: Hemagglutination inhibition assay with PHL (papain-treated human RBCs O); assay type: cell-based; conditions: for MIC (minimal inhibitory concentration, hemagglutination by PHL): RBC O, two independent measurements; for PotencyL-Fuc: MIC L-fucose / MIC ligand; for β L-Fuc (affinity improvement factor): MICbasic unit/(valency × MICligand), basic unit L-Fuc
T1 sequence (C7BLE4 entry or part of it): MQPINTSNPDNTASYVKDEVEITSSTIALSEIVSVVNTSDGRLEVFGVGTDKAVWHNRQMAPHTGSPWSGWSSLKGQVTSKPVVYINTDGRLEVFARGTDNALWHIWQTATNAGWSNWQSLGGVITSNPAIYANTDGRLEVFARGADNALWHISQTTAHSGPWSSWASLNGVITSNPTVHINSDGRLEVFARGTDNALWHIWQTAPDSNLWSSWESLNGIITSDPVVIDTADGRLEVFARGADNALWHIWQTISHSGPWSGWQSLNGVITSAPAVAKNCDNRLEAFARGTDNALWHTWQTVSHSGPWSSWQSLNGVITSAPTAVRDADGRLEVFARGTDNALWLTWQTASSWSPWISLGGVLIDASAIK
Experimental: The set of potential ligands 1–10 with different levels of fucosylation was tested, and their inhibition potency on hemagglutination by PHL was assessed (Table 1, Fig. 2). […] To assess the contribution of valency to the affinity increase, an affinity improvement factor β was calculated as the relationship MICbasic unit/(valency × MICligand).
Human red blood cells (RBCs) O were processed according to previously published work[16]. In brief, RBCs O treated with sodium citrate were washed four times by PBS buffer (137 mM NaCl, 2.7 mM KCl, 8 mM Na2HPO4, 1.47 mM KH2PO4, pH 7.4), diluted to 50% by PBS with 0.005% (w/w) sodium azide and treated by 0.1% papain for the duration of 30 minutes.
Hemagglutination inhibition assay was performed for specificity and semi-quantitative affinity of the PHL interaction with the compounds. All carbohydrate inhibitors in 50 mM starting concentration were serially diluted in the PBS buffer and used for a determination of the lowest inhibiting concentration. As a blank, the PBS buffer supplemented with the appropriate amount of DMSO was used in order to exclude potential interference with the interaction. The individual samples were mixed with the lectin in concentration 2 mg/ml in a 5 μl:5 μl ratio. Thereafter, 10 μl of 10% RBCs O in PBS buffer was added, thoroughly mixed and incubated for 10 minutes at room temperature. Following incubation, the mixture was again mixed and the reaction was observed on microscope slides using Levenhuk 2L NG microscope with Levenhuk D2L digital camera (Levenhuk, USA). Imagines were obtained via software ToupView for Windows (Levenhuk). The positive (PHL without inhibitor) and negative control (reaction without PHL) were prepared and processed in the same way using the appropriate volume of PBS buffer instead of the not included components. The lowest concentration of inhibitor able to inhibit agglutination was determined and compared with the standard (L-fucose). Minimal inhibitory concentrations (MIC) of synthesised inhibitors were determined from two independent measurements.

[2] = target: T1, PHL; assay: SPR competitive inhibition of PHL binding to α-L-fucoside sensor chip; conditions: for IC50: 25 °C, three independent measurements; for β L-Fuc (affinity improvement factor): IC50,basic unit/(valency × IC50,ligand), basic unit L-Fuc; for PotencyL-Fuc: IC50 L-fucose / IC50 ligand
Experimental: To analyse the competitive inhibition of PHL binding to a multivalent surface, the surface plasmon resonance (SPR) technique was employed. A sensor chip presenting α-L-fucopyranoside residues was treated with a constant concentration of PHL, while an increasing concentration of the ligands was used to determine IC50 (Table 2, Fig. 3). […] To assess the contribution of valency to the affinity increase, an affinity improvement factor β was calculated as the relationship IC50,basic unit/(valency × IC50,ligand)[30].
Surface plasmon resonance (SPR) experiments were performed on a BIAcore T200 instrument (GE Healthcare, UK) at 25 °C, using buffer A supplemented with 0.05% Tween 20 as a running buffer. α-L-fucoside was immobilized onto CM5 sensor chip (GE Healthcare, UK) covered with a carboxymethylated dextran matrix. The sensor chip surface was activated with N-ethyl-N-(3-dimethylaminopropyl)carbodiimide/N-hydroxysuccinimide solution and then coated with streptavidin using the manufacturer’s standard protocol using HBS buffer (10 mM HEPES, 150 mM NaCl, 0.05% Tween 20, pH 7. 5). Unreacted groups were blocked with 1 M ethanolamine-HCl, pH 8.5. Biotinylated carbohydrate (biotinilated monomeric probes, Lectinity, Russia) was injected onto particular measuring channel and pure biotin on blank channel at a flow rate of 5 μl/min.
SPR inhibition measurements were carried out on measuring channel with L-fucoside at a flow rate of 5 µl/min. PHL was diluted to a concentration of 20 μg/ml by the buffer A supplemented with 0.05% Tween 20, mixed 1:1 (v/v) with various concentrations of inhibitors (500–5 μM) in the same buffer and injected onto the sensor chip. The response of lectin bound to the sugar surface at equilibrium was plotted against the concentration of inhibitor in order to determine IC50 (concentration of inhibitor resulting in 50% inhibition of binding). As IC50 is not a constant and depends on the experimental set-up, a parameter called potency was used for characterization. The potency of a tested inhibitor is the ratio of IC50 of a chosen standard inhibitor (in this case L-fucose) and the inhibitor in question. Pure PHL lectin was used as a control (0% inhibition) and channel with pure biotin served as a blank. IC50 was determined from triplicates.

[3] = system: P. asymbiotica subsp. australis cells; assay: Cell aggregation (cross-linking) assay; assay type: cell-based, Photorhabdus asymbiotica subsp. australis; conditions: three independent measurements
From the text: Because of the aggregation of PHL by calixarenes and dendrimers during SPR and ITC experiments, we decided to compare tetravalent compounds at a higher level. We performed a series of in vitro aggregation assays to reveal their aggregation properties towards P. asymbiotica subsp. australis (Table 4, Fig. 5). Prior to each assay, we confirmed the absence of aggregates in two negative controls – bacterial cells in PBS buffer and in the presence of azide 1 as a monomer. With all chosen compounds, we observed bacterial aggregates of a variable size that confirmed that they are capable of interacting with a cell surface. This effect may be caused by interaction of the multivalent inhibitors with PHL or other receptors. The concentration of the first appearance of aggregates varied according to the nature of the ligand used. […] An unexpected observation was that calixarene 7 had the lowest aggregation potential. In contrast to other techniques (hemagglutination, SPR and ITC), where calixarenes 6 and 7 provided similar results, during cross-linking experiments calixarene 7 was four times worse than calixarene 6. At the same time, both tetrameric calixarenes 6 and 7 are in a 1,3-alternate conformation with the two-faced presentation of the fucopyranosyl epitopes on opposite regions probably occupying a similar spatial orientation. The only difference is the tert-Bu group on the upper rim in calixarene 6, which might contribute to nonpolar interactions with whole P. asymbiotica cells.
P. asymbiotica subsp. australis was inoculated from stock cells stored at −80 °C into a standard LB media and were grown in 30 °C under an orbital shaking overnight. Bacterial growth was tracked by measuring the optical density of the broth at 600 nm (OD600) using a spectrophotometer (Biochrom Ltd., BioPhotometer WGA CO 8000 Biowave). Cells were harvested when reaching an OD600 = 0.5. The culture was centrifuged at 4,300 g and room temperature for 2 minutes (Minispin, Eppendorf, Germany) and cells were then washed three times with PBS buffer. Cells were diluted in PBS to OD600 of 2.0 and kept in a fridge until performing the aggregation assay.
P. asymbiotica subsp. australis cells and fucosylated compounds in a concentration ranging from 50 mM to 3.125 mM were gently mixed in a 9:1 (v/v) ratio. The reaction mixtures were left at room temperature for 10 minutes. 5 µl of reaction mixture was then transferred onto a microscope slide and observed under a fluorescence microscope (OLYMPUS IX81 Microscope IX81F-3 with IX2-UCB-2 Controller and X-Cite 120PC Q; Olympus and Excelitas Technologies, Japan, resp. USA). As a negative control, bacterial cells with/without azide 1 as a monomer were used. Three independent measurements were performed.

[4] = target: T1, PHL; set-up: method as in PMID 28806750; conditions: SPR competition assay, earlier work; cited from earlier work
[5] = target: T1, PHL; assay: Isothermal titration calorimetry of PHL with ligands; assay type: binding
From the text: The binding of PHL to different α-L-fucoside compounds was further characterized by isothermal titration calorimetry (ITC), enabling determination of the complete thermodynamic profile of the molecular interactions (Table 3, Fig. 4). […] Because of this, it was not possible to evaluate the data, despite the obvious interaction. The dendrimers also cross-linked/aggregated the protein as with calixarenes, however the curves provided clear outcomes with an affinity in the low micromolar range. The dissociation constants (KD) of all dendrimers correlate with their valency – the higher number of fucose, the more decreased KD. […] The stoichiometry value n corresponds to the number of terminal fucoses per ligand molecule. The n value decreases from 4 to 1 as the number of fucose units increases from 1 to 12 (Table 3).
PHL protein in buffer A was equilibrated at room temperature at least for 30 min before ITC measurement. All ITC experiments were performed using ITC200 calorimeter (Malvern Panalytical, UK) at 25 °C. Carbohydrate ligands dissolved in buffer A were used at different concentrations. Protein in the calorimeter cell (50 μM) was titrated by consecutive additions (2 μl) of the ligand (1.5–5 mM) in the syringe while stirring at 1000 rpm. Integrated heat effects were analysed by nonlinear regression using a single-site binding model and global fitting in Origin 7 software (Microcal Instruments)[37]. The thermodynamic parameters of synthesised inhibitors were determined from two independent measurements.

Structure (SMILES) | MIC (minimal inhibitory concentration, hemagglutination by PHL) [1] | PotencyL-Fuc ([1]; hemagglutination) | β L-Fuc (affinity improvement factor) ([1]; hemagglutination) | β Azide1 (affinity improvement factor) ([1]; hemagglutination, basic unit azide 1) | PotencyAzide1 ([1]; hemagglutination, relative to azide 1) | IC50 [2] | β L-Fuc (affinity improvement factor) [2] | PotencyL-Fuc [2] | β Azide1 (affinity improvement factor) ([2]; basic unit azide 1) | PotencyAzide1 ([2]; relative to azide 1) | The lowest concentration able to aggregate P. asymbiotica cells [3] | IC50 [4] | fold stronger ligand than free L-fucose [4] | Kd ([5]; ITC at 25 °C) | −TΔS ([5]; ITC at 25 °C) | −ΔG ([5]; ITC at 25 °C) | −ΔH ([5]; ITC at 25 °C) | n (stoichiometry) ([5]; ITC at 25 °C, two independent measurements) | Potency L-Fuc ([5]; ITC, KD L-fucose / KD ligand) | β L-Fuc (affinity improvement factor) ([5]; ITC, KD,basic unit/(valency × KD,ligand), basic unit L-Fuc)
C[C@@H]1O[C@@H](CCn2cc(COc3c4cccc3Cc3cccc(c3OCc3cn(CC[C@@H]5O[C@@H](C)[C@@H](O)[C@@H](O)[C@@H]5O)nn3)Cc3cccc(c3OCc3cn(CC[C@@H]5O[C@@H](C)[C@@H](O)[C@@H](O)[C@@H]5O)nn3)Cc3cccc(c3OCc3cn(CC[C@@H]5O[C@@H](C)[C@@H](O)[C@@H](O)[C@@H]5O)nn3)C4)nn2)[C@@H](O)[C@H](O)[C@@H]1O [Calixarene 7] | 100 µM (≈ 145 µg/mL) | 31.3 | 7.8 | 0.5 | 2 | 0.178 ± 0.02 µM | 508 | 2,029 | approximately 15 | 61 | 5 mM |  |  |  |  |  |  |  |  | 
CO[C@@H]1O[C@@H](C)[C@@H](O)[C@@H](O)[C@@H]1O [α-Me-Fuc, methyl α-L-fucopyranoside, reference compound] | 400 µM (≈ 71.3 µg/mL) | 7.8 | 7.8 |  |  | 38.5 ± 1.2 µM | 9 | 9 |  |  |  | 40 µM | ~10 fold | 267 ± 11 µM | 9.23 ± 1.03 kcal/mol | 4.88 ± 0.22 kcal/mol | 14.1 ± 1 kcal/mol | 2.9 ± 0.2 | 5 | 5
